Columns and labels:
PCK rats [1] = assay: Hepatic and renal laboratory parameters in PCK rats treated with octreotide; conditions: for Alkaline Phosphatase / Aspartate Aminotransferase / Bilirubin Direct / Bilirubin Total / Blood Urea Nitrogen / Creatinine / Protein total: Octreotide (10 μg)
Protocol: (§1) Three week old PCK rats (n=60) were divided into five groups (three animals of each gender per treatment group). Each group was divided into two subgroups. […] Each animal was injected intraperitoneally every 12 hours. […] The control groups received an equal volume of saline.
(§2) At 4, 8, 12 and 16 weeks of age, animals were anesthetized with pentobarbital (50 mg/kg body weight, ip). Blood was collected by cardiac puncture for determination of hepatic and renal laboratory parameters and cAMP levels. Liver and kidney tissue sections (5 μm) were stained with hematoxylin-eosin and picrosirius red for analysis using light microscopy. Renal and hepatic fibrosis and cystic scores were measured using Meta-Morph software (Universal Imaging, West Chester, Pa., USA), a light microscope with a color digital camera (Nikon DXM 1200), and a Pentium IBM-compatible computer (Del OptiPlex). To measure the volume of a cyst or fibrosis, a colored threshold was applied at a level that allowed cystic tissue to be distinguished from non-cystic tissue and picrosirius red-positive stained fibrotic tissue to be distinguished from the background. The cystic and fibrotic scores were expressed as a percentage of total tissue.

PCK rats [2] = assay: Body, liver and kidney weight in PCK rats treated with octreotide; format: in vivo, rat
Protocol: (§3) Each group was divided into two subgroups. […] Each animal was injected intraperitoneally every 12 hours. […] The control groups received an equal volume of saline.

[3] = system: cAMP levels in bile ducts and serum of PCK rats; assay: cAMP levels in freshly isolated bile ducts and serum of PCK rats treated with octreotide; format: in vivo, rat
Protocol: The concentration of cAMP was measured in freshly isolated and cultured bile ducts and in serum. Serum was diluted 1:10 before assay. Cultured bile ducts were first released from the gel by adding 0.4 mL of high-activity type XI collagenase for 45 min. at 37° C. and washing twice with medium. cAMP concentrations were determined using the Bridge-It™ cAMP designer assay (Mediomics, LLC, St. Louis, Mo.). Results were expressed as pmol per μg of DNA. The amount of DNA in a single IBDU was determined using the DNeasy Tissue Kit (QIAGEN Inc., Valencia, Calif.).
as §3

PCK rats [4] = assay: Hepatic and renal cyst volume and fibrosis score in PCK rats treated with octreotide; format: in vivo, rat
Protocol: as §1, §2

[5] = biological target: somatostatin receptor 2 (SSTR2) (Homo sapiens, UniProt P30874); conditions: Froidevaux and Eberle 2002; cited from earlier work
Chain of somatostatin receptor 2 (SSTR2) (P30874 whole entry, species assumed): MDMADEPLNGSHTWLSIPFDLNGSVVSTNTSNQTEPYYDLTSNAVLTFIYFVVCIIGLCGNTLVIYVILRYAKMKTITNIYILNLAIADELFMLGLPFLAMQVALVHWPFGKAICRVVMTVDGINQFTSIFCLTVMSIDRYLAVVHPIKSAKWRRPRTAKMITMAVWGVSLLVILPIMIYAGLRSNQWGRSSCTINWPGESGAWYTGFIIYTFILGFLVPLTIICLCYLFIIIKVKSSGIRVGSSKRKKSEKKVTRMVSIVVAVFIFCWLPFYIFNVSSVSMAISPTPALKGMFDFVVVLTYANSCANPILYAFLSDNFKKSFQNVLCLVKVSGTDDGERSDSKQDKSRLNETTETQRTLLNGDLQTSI

SSTR3 = SSTR3 (Homo sapiens, UniProt P32745); conditions: Froidevaux and Eberle 2002; cited from earlier work
Chain of SSTR3 (P32745 whole entry, species assumed): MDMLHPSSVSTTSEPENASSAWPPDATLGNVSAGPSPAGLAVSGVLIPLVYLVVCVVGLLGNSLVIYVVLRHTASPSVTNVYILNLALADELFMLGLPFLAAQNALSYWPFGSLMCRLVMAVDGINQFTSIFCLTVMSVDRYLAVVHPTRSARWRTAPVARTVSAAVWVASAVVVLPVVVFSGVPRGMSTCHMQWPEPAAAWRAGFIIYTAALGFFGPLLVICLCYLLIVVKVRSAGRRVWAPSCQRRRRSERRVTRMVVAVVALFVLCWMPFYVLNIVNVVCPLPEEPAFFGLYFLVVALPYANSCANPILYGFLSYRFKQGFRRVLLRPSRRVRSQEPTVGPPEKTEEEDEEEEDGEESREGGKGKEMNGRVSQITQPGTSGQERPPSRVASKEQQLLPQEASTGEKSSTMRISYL

[6] = Female PCK rats, Group I, 4 weeks of treatment
[7] = Female PCK rats, Group II, 8 weeks of treatment
[8] = Female PCK rats, Group III, 12 weeks of treatment
[9] = Female PCK rats, Group IV, 16 weeks of treatment
[10] = Female PCK rats, HD, 4 weeks of treatment
[11] = Male PCK rats, Group I, 4 weeks of treatment
[12] = Male PCK rats, Group II, 8 weeks of treatment
[13] = Male PCK rats, Group III, 12 weeks of treatment
[14] = Male PCK rats, Group IV, 16 weeks of treatment
[15] = Male PCK rats, HD, 4 weeks of treatment
[16] = 100 μg/kg, 4 weeks, vs 10 μg/kg
[17] = Female PCK rats, Group I, 4 weeks of treatment, Octreotide (10 μg)
[18] = Female PCK rats, Group II, 8 weeks of treatment, Octreotide (10 μg)
[19] = Female PCK rats, Group III, 12 weeks of treatment, Octreotide (10 μg)
[20] = Female PCK rats, Group IV, 16 weeks of treatment, Octreotide (10 μg)
[21] = Female PCK rats, HD, 4 weeks of treatment, Octreotide (100 μg)
[22] = Male PCK rats, Group I, 4 weeks of treatment, Octreotide (10 μg)
[23] = Male PCK rats, Group II, 8 weeks of treatment, Octreotide (10 μg)
[24] = Male PCK rats, Group III, 12 weeks of treatment, Octreotide (10 μg)
[25] = Male PCK rats, Group IV, 16 weeks of treatment, Octreotide (10 μg)
[26] = Male PCK rats, HD, 4 weeks of treatment, Octreotide (100 μg)
[27] = octreotide-treated vs saline-treated PCK rats
[28] = octreotide 10 μg/kg, 4 to 16 weeks

C[C@@H](O)[C@@H]1NC(=O)[C@H](CCCCN)NC(=O)[C@@H](Cc2c[nH]c3ccccc23)NC(=O)[C@H](Cc2ccccc2)NC(=O)[C@@H](NC(=O)[C@H](N)Cc2ccccc2)CSSC[C@@H](C(=O)N[C@H](CO)[C@@H](C)O)NC1=O [Octreotide, octreotide]
Alkaline Phosphatase (PCK rats [1]; [6]): 238.5 ± 23.5 U/L | Aspartate Aminotransferase (PCK rats [1]; [6]): 135.0 ± 11.4 U/L | Bilirubin Direct (PCK rats [1]; [6]): 0.1 mg/dL | Bilirubin Total (PCK rats [1]; [6]): 0.2 mg/dL | Blood Urea Nitrogen (PCK rats [1]; [6]): 16.7 ± 0.3 mg/dL | Creatinine (PCK rats [1]; [6]): 0.55 ± 0.06 mg/dL | Protein total (PCK rats [1]; [6]): 5.70 ± 0.20 g/dL | Aspartate Aminotransferase (PCK rats [1]; [7]): 211.2 ± 48.4 U/L | Bilirubin Direct (PCK rats [1]; [7]): 0.1 mg/dL | Bilirubin Total (PCK rats [1]; [7]): 0.23 ± 0.03 mg/dL | Blood Urea Nitrogen (PCK rats [1]; [7]): 15.7 ± 1.2 mg/dL | Creatinine (PCK rats [1]; [7]): 0.57 ± 0.03 mg/dL | Protein total (PCK rats [1]; [7]): 5.53 ± 0.18 g/dL | Alkaline Phosphatase (PCK rats [1]; [8]): 237.0 ± 22.1 U/L | Aspartate Aminotransferase (PCK rats [1]; [8]): 207.5 ± 31.5 U/L | Bilirubin Direct (PCK rats [1]; [8]): 0.1 mg/dL | Bilirubin Total (PCK rats [1]; [8]): 0.2 mg/dL | Blood Urea Nitrogen (PCK rats [1]; [8]): 20.5 ± 0.5 mg/dL | Creatinine (PCK rats [1]; [8]): 0.6 mg/dL | Protein total (PCK rats [1]; [8]): 5.2 ± 0.17 g/dL | Alkaline Phosphatase (PCK rats [1]; [9]): 156.7 ± 4.3 U/L | Aspartate Aminotransferase (PCK rats [1]; [9]): 165.0 ± 36.46 U/L | Bilirubin Direct (PCK rats [1]; [9]): 0.1 mg/dL | Bilirubin Total (PCK rats [1]; [9]): 0.2 mg/dL | Blood Urea Nitrogen (PCK rats [1]; [9]): 20.5 ± 0.9 mg/dL | Creatinine (PCK rats [1]; [9]): 0.63 ± 0.03 mg/dL | Protein total (PCK rats [1]; [9]): 5.6 ± 0.08 g/dL | Alkaline Phosphatase (PCK rats [1]; [10]): 292.5 ± 14.3 U/L | Aspartate Aminotransferase (PCK rats [1]; [10]): 197.4 ± 25.7 U/L | Bilirubin Direct (PCK rats [1]; [10]): 0.1 mg/dL | Bilirubin Total (PCK rats [1]; [10]): 0.2 mg/dL | Blood Urea Nitrogen (PCK rats [1]; [10]): 17.0 ± 2.6 mg/dL | Creatinine (PCK rats [1]; [10]): 0.6 mg/dL | Protein total (PCK rats [1]; [10]): 5.3 ± 0.12 g/dL | Alkaline Phosphatase (PCK rats [1]; [11]): 264.5 ± 41.5 U/L | Aspartate Aminotransferase (PCK rats [1]; [11]): 212.7 ± 41.1 U/L | Bilirubin Direct (PCK rats [1]; [11]): 0.1 mg/dL | Bilirubin Total (PCK rats [1]; [11]): 0.17 ± 0.0 mg/dL | Blood Urea Nitrogen (PCK rats [1]; [11]): 16.0 ± 0.6 mg/dL | Creatinine (PCK rats [1]; [11]): 0.49 ± 0.04 mg/dL | Protein total (PCK rats [1]; [11]): 5.74 ± 0.19 g/dL | Alkaline Phosphatase (PCK rats [1]; [12]): 305.3 ± 20.4 U/L | Aspartate Aminotransferase (PCK rats [1]; [12]): 188.1 ± 20.6 U/L | Bilirubin Direct (PCK rats [1]; [12]): 0.1 mg/dL | Bilirubin Total (PCK rats [1]; [12]): 0.2 mg/dL | Blood Urea Nitrogen (PCK rats [1]; [12]): 18.3 ± 1.6 mg/dL | Creatinine (PCK rats [1]; [12]): 0.6 mg/dL | Protein total (PCK rats [1]; [12]): 5.22 ± 1.4 g/dL | Alkaline Phosphatase (PCK rats [1]; [13]): 210.5 ± 24.5 U/L | Aspartate Aminotransferase (PCK rats [1]; [13]): 181.7 ± 39.2 U/L | Bilirubin Direct (PCK rats [1]; [13]): 0.1 mg/dL | Bilirubin Total (PCK rats [1]; [13]): 0.3 mg/dL | Blood Urea Nitrogen (PCK rats [1]; [13]): 21.5 ± 1.5 mg/dL | Creatinine (PCK rats [1]; [13]): 0.6 mg/dL | Protein total (PCK rats [1]; [13]): 5.2 ± 0.03 g/dL | Alkaline Phosphatase (PCK rats [1]; [14]): 189.5 ± 18.5 U/L | Aspartate Aminotransferase (PCK rats [1]; [14]): 145.1 ± 49.51 U/L | Bilirubin Direct (PCK rats [1]; [14]): 0.1 mg/dL | Bilirubin Total (PCK rats [1]; [14]): 0.2 mg/dL | Blood Urea Nitrogen (PCK rats [1]; [14]): 20.3 ± 0.8 mg/dL | Creatinine (PCK rats [1]; [14]): 0.65 ± 0.05 mg/dL | Protein total (PCK rats [1]; [14]): 5.4 ± 0.35 g/dL | Alkaline Phosphatase (PCK rats [1]; [15]): 276.8 ± 31.2 U/L | Aspartate Aminotransferase (PCK rats [1]; [15]): 191.0 ± 24.4 U/L | Bilirubin Direct (PCK rats [1]; [15]): 0.1 mg/dL | Bilirubin Total (PCK rats [1]; [15]): 0.2 mg/dL | Blood Urea Nitrogen (PCK rats [1]; [15]): 17.1 ± 1.2 mg/dL | Creatinine (PCK rats [1]; [15]): 0.5 mg/dL | Protein total (PCK rats [1]; [15]): 5.4 ± 0.15 g/dL | hepatic or renal function (PCK rats [1]; any dose administered (10 or 100 μg/kg ip every 12 hours)): did not affect | effect on liver and kidney weights at higher dose (PCK rats [2]; [16]): more significant effect | Kidney weight (PCK rats [2]; [17]): 1.31 ± 0.04 % body weight | Kidney weight, decrease (↓) vs saline (PCK rats [2]; [17]): (↓11.8%) | Liver weight (PCK rats [2]; [17]): 5.34 ± 00.24 % body weight | Liver weight, decrease (↓) vs saline (PCK rats [2]; [17]): (↓10.5%) | Kidney weight (PCK rats [2]; [18]): 1.35 ± 0.06 % body weight | Kidney weight, decrease (↓) vs saline (PCK rats [2]; [18]): (↓15.0%) | Liver weight (PCK rats [2]; [18]): 5.37 ± 0.22 % body weight | Liver weight, decrease (↓) vs saline (PCK rats [2]; [18]): (↓15.8%) | Kidney weight (PCK rats [2]; [19]): 1.42 ± 0.11 % body weight | Kidney weight, decrease (↓) vs saline (PCK rats [2]; [19]): (↓17.9%) | Liver weight (PCK rats [2]; [19]): 5.43 ± 0.24 % body weight | Liver weight, decrease (↓) vs saline (PCK rats [2]; [19]): (↓18.8%) | Kidney weight (PCK rats [2]; [20]): 1.48 ± 0.13 % body weight | Kidney weight, decrease (↓) vs saline (PCK rats [2]; [20]): (↓20.6%) | Liver weight (PCK rats [2]; [20]): 5.62 ± 0.25 % body weight | Liver weight, decrease (↓) vs saline (PCK rats [2]; [20]): (↓21.9%) | Kidney weight (PCK rats [2]; [21]): 1.14 ± 0.07 % body weight | Kidney weight, decrease (↓) vs saline (PCK rats [2]; [21]): (↓18.6%) | Liver weight (PCK rats [2]; [21]): 4.7 ± 0.35 % body weight | Liver weight, decrease (↓) vs saline (PCK rats [2]; [21]): (↓19.1%) | Kidney weight (PCK rats [2]; [22]): 1.43 ± 0.04 % body weight | Kidney weight, decrease (↓) vs saline (PCK rats [2]; [22]): (↓11.2%) | Liver weight (PCK rats [2]; [22]): 4.76 ± 0.07 % body weight | Liver weight, decrease (↓) vs saline (PCK rats [2]; [22]): (↓9.0%) | Kidney weight (PCK rats [2]; [23]): 1.52 ± 0.11 % body weight | Kidney weight, decrease (↓) vs saline (PCK rats [2]; [23]): (↓14.6%) | Liver weight (PCK rats [2]; [23]): 5.24 ± 0.57 % body weight | Liver weight, decrease (↓) vs saline (PCK rats [2]; [23]): (↓12.8%) | Kidney weight (PCK rats [2]; [24]): 1.53 ± 0.15 % body weight | Kidney weight, decrease (↓) vs saline (PCK rats [2]; [24]): (↓16.8%) | Liver weight (PCK rats [2]; [24]): 5.31 ± 0.46 % body weight | Liver weight, decrease (↓) vs saline (PCK rats [2]; [24]): (↓17.2%) | Kidney weight (PCK rats [2]; [25]): 1.57 ± 0.12 % body weight | Kidney weight, decrease (↓) vs saline (PCK rats [2]; [25]): (↓18.9%) | Liver weight (PCK rats [2]; [25]): 5.64 ± 0.14 % body weight | Liver weight, decrease (↓) vs saline (PCK rats [2]; [25]): (↓19.9%) | Kidney weight (PCK rats [2]; [26]): 1.27 ± 0.13 % body weight | Kidney weight, decrease (↓) vs saline (PCK rats [2]; [26]): (↓19.3%) | Liver weight (PCK rats [2]; [26]): 4.18 ± 0.11 % body weight | Liver weight, decrease (↓) vs saline (PCK rats [2]; [26]): (↓15.1%) | liver and kidney weights vs saline (PCK rats [2]; each group studied): significantly decreased | body weight vs saline-treated (PCK rats [2]; male or female PCK rats): No differences | cAMP concentration in bile duct and serum at higher dose [3, 16]: to an even greater extent | cAMP levels in freshly isolated bile ducts [3, 27]: lowered | cAMP levels in serum [3, 27]: lowered | cystic volume and fibrosis score in liver and kidney at higher dose (PCK rats [4]; higher dose (100 μg/kg, 4 weeks)): even more significant reduction | hepatic fibrosis (PCK rats [4]; octreotide 10 μg/kg): significant reduction | renal fibrosis (PCK rats [4]; octreotide 10 μg/kg): significant reduction | cystic volume in kidney (PCK rats [4]; [28]): decreased consistently and progressively | cystic volume in liver (PCK rats [4]; [28]): decreased consistently and progressively | binding affinity [5]: high affinity | binding affinity (SSTR3): low affinity
